In ChEMBL document CHEMBL1201862, “PubChem BioAssay data set” (2004):
Calls of active or inactive are those of the source. Rule as the data show it: actives have a measured IC50 and inactives only a lower limit.

Target: Envelope glycoprotein gp160 (Human immunodeficiency virus 1, UniProt Q6QLK5)
Assay: inhibitors of HIV fusion peptide binding, primary screen, biochemical, uHTS, fluorescence dequenching (AID 1986)

Envelope glycoprotein gp160, sequence (Q6QLK5 whole entry, the tested form may be a part): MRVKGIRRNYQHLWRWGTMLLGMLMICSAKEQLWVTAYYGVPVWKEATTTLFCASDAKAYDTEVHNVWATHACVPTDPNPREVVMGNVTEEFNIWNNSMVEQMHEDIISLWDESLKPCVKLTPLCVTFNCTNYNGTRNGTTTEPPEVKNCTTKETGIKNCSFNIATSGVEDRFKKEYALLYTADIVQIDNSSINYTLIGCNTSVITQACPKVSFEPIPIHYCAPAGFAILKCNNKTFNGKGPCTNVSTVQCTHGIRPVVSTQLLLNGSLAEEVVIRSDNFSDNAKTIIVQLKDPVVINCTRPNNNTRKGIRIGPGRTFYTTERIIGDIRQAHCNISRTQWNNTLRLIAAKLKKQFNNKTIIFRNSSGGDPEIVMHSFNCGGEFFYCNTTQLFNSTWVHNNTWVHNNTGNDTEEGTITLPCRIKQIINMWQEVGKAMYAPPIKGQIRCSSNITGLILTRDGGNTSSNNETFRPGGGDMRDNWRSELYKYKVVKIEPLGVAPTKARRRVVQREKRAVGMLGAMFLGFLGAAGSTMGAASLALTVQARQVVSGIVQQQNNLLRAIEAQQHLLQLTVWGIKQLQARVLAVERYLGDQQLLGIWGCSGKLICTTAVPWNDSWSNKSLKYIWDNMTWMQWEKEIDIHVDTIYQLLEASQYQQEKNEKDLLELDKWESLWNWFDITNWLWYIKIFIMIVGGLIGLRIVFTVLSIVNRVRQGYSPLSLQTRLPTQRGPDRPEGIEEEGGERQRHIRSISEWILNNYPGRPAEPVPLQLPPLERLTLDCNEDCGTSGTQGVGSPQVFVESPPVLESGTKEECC

N#Cc1c(O)nc(SCc2cccc(Cl)c2)nc1-c1ccccc1
IC50: 24.8 µM (active)

O=C(O)c1cc(N/N=C/c2ccc(-c3ccccc3)cc2)ccc1Cl
IC50: 16.1 µM (active)
